Assay results reported in article PMC8347709 (International Journal of Molecular Sciences, 2021).

Columns and labels:
[1] = LogD7.4 by shake-flask method; type: physicochemical; conditions: n-octanol/phosphate-buffered saline, n-octanol/PBS pH 7.4, room temperature
Description: The measurement was performed twice in triplicate.

[2] = target: T1, CB2R in rat spleen tissue (Rattus norvegicus, UniProt Q9QZN9); assay: in vitro autoradiography on rat spleen cryosections; conditions: 10 µm cryosections, female SPRD rats; nonspecific binding with GW405833
T1 construct: from tissue; host or cells: rat spleen cryosections (female SPRD rat)
T1 sequence (Q9QZN9 1-360): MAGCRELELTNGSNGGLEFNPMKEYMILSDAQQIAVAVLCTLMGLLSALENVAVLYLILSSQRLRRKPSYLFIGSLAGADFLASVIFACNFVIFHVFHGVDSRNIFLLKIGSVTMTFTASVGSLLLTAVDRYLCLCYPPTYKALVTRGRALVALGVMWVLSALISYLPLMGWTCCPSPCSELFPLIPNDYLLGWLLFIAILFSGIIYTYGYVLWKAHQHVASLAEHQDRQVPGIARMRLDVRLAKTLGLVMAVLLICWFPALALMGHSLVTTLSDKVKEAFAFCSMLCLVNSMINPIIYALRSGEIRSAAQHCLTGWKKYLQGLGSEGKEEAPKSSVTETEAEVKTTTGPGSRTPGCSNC
Description: The in vitro autoradiographic experiments were performed according to a previously published protocol. […] Afterwards, the samples were washed, exposed to imaging plates (Fuji Photo Film, Co. Ltd., Tokyo, Japan), and eventually scanned using a HD-CR 35 scanner (raytest Isotopenmessgeraete GmbH, Straubenhardt, Germany). The scan data were visualised and processed by computer-assisted microdensitometry (Aida version 2.31, raytest Isotopenmessgeräte GmbH, Straubenhardt, Germany).
Figure S1. […] Cryosections (10 µm;
(nonspecific binding; (B) for 60 min. […]

[3] = target: T2, CB2R expression in the spleen (Rattus norvegicus, UniProt Q9QZN9); assay: dynamic PET/MR of spleen uptake in healthy rats; type: in vivo, Wistar rats; conditions: single blocking experiment, GW405833 1.5 mg/kg i.v. 10 min prior tracer
T2 construct: from tissue; host or cells: spleen of living male Wistar Hun rats (in vivo PET)
T2 sequence (Q9QZN9 1-360): T1 sequence (Q9QZN9 1-360)
From the text: For the uptake studies into the spleen three male Wistar Hun rats (Janvier Laboratories, Le Genest Saint Isle, France) weighing 268 ± 56 g were used. For the uptake studies into the brain, five female Wistar rats weighing 263 ± 13 g carrying the stereotactically injected AAV 2/7-CaMKII0.4-intron-hCB2R D80N (right striatum) and AAV2/7-CaMKII0.4-intron-3flag-eGFP (contralateral, left striatum). Animals were initially anaesthetised with 5% isoflurane and placed on a thermostatically heated animal bed where anaesthesia was maintained with 2% isoflurane in 60% oxygen/38% room air. […] List-mode PET data were binned as a series of attenuation-corrected sinogram frames (12 × 10 s, 6 × 30 s, 5 × 60 s and 10 × 300 s) and were reconstructed by ordered subset expectation maximisation (OSEM3D) with four iterations, six subsets and a voxel size of 0.4 mm^3 (Nucline v2.01, Mediso, Hungary). […] Non-parametrical analyses of achieved time-activity curves (TACs) were performed with Microsoft Excel to determine the time to peak, the TAC peak value and the area-under-the-zero-momentum curve (AUC):(1) AUC0−tx=∫0txcradioactivity × dt where c (radioactivity) is expressed as a standardised uptake value normalised to the bodyweight in g (SUV), the area-under-first-momentum curve (AUMC):(2) AUMC0−tx=∫0txt × cradioactivity × dt and the mean residence time (MRT):(3) MRT=AUMC0−tx/AUC0−tx […]

hCB2R(D80N) = target: T3, hCB2R(D80N) (Homo sapiens, UniProt P34972, D80N); assay: PET in rat model with local overexpression of hCB2R(D80N) in the right striatum; type: in vivo; parameters: reduction of the AUC20–60min by displacement: concentration or dose not given beside the values; conditions: for time to peak: TAC; for reduction of the AUC20–60min by displacement: GW405833 i.v. at 20 min p.i.; for change of AUC40–60min by displacement versus vehicle: GW405833 5 mg/kg i.v. 20 min after tracer
T3 construct: expressed in transfected cells; host or cells: rat striatal cells transduced in vivo with AAV2/7-CaMKII0.4-intron-hCB2R D80N
From the text: For the uptake studies into the spleen three male Wistar Hun rats (Janvier Laboratories, Le Genest Saint Isle, France) weighing 268 ± 56 g were used. For the uptake studies into the brain, five female Wistar rats weighing 263 ± 13 g carrying the stereotactically injected AAV 2/7-CaMKII0.4-intron-hCB2R D80N (right striatum) and AAV2/7-CaMKII0.4-intron-3flag-eGFP (contralateral, left striatum). Animals were initially anaesthetised with 5% isoflurane and placed on a thermostatically heated animal bed where anaesthesia was maintained with 2% isoflurane in 60% oxygen/38% room air. […] List-mode PET data were binned as a series of attenuation-corrected sinogram frames (12 × 10 s, 6 × 30 s, 5 × 60 s and 10 × 300 s) and were reconstructed by ordered subset expectation maximisation (OSEM3D) with four iterations, six subsets and a voxel size of 0.4 mm^3 (Nucline v2.01, Mediso, Hungary). The analysis of reconstructed datasets was performed with PMOD software (v4.103, PMOD Technologies LLC, Zurich, Switzerland). Non-parametrical analyses of achieved time-activity curves (TACs) were performed with Microsoft Excel to determine the time to peak, the TAC peak value and the area-under-the-zero-momentum curve (AUC):(1) AUC0−tx=∫0txcradioactivity × dt where c (radioactivity) is expressed as a standardised uptake value normalised to the bodyweight in g (SUV), the area-under-first-momentum curve (AUMC):(2) AUMC0−tx=∫0txt × cradioactivity × dt and the mean residence time (MRT):(3) MRT=AUMC0−tx/AUC0−tx

hCB2R = hCB2R (Homo sapiens, UniProt P34972); assay: homologous competition with [18F]LU14 on hCB2R-CHO cell membrane homogenates; type: binding; parameters: host or cells: CHO cells, stably transfected
Description: A value of 2.9 nM was experimentally determined. Next, the in vitro evaluation by autoradiography on spleen tissue was performed (Supplementary Figure S1), as the spleen is regarded as a suitable reference organ, having high densities of CB2R (rat spleen CB2R Bmax = 0.71 pmol/mg).
The inhibition curve was obtained by non-linear regression of percent specific binding (mean ±SD; one experiment run in triplicate) plotted versus the log concentration of the test compound.

[4] = hCB2R D80N-to-cerebellum, vehicle (10 min prior tracer), n = 3
[5] = hCB2R D80N-to-contralateral, vehicle (10 min prior tracer), n = 3
[6] = same rat model, comparator data ref 68

T3 sequence (P34972 whole entry D80N): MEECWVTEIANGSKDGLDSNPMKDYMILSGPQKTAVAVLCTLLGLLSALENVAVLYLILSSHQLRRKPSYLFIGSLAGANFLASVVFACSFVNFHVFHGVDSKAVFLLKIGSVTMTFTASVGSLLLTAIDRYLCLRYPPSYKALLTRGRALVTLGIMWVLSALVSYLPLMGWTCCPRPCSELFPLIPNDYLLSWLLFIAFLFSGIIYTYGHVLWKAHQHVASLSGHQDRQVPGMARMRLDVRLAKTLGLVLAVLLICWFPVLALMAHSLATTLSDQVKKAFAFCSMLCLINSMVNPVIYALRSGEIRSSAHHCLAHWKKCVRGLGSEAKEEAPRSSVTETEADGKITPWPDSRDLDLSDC
hCB2R, sequence (P34972 whole entry): as the sequence (P34972 whole entry D80N) above, with N80D counted along it

With `C[C@H]1CC[C@@H](NC(=O)c2cc3cccnc3n(CCCC[18F])c2=O)CC1` [[^18F]LU14] the logD [1] was 3.15 ± 0.25, the “specific binding in spleen autoradiography” value [2] was “no or low specific binding” and the “AUC0–60min in the spleen, blocking versus control” value [3] was “comparable”. It also gave a time to peak (hCB2R(D80N); cerebellum) of 1.6 ± 1.4 min, a time to peak (hCB2R(D80N); contralateral region) of 3.8 ± 1.6 min and a time to peak (hCB2R(D80N); hCB2R(D80N) right striatum, rats, i.v., n = 3) of 7.4 ± 2.8 min. It also gave an AUC (hCB2R(D80N); cerebellum) of 41.1 ± 5.6 SUV × min, an AUMC (hCB2R(D80N); cerebellum) of 819 ± 132 SUV × min^2 and an MRT (hCB2R(D80N); cerebellum) of 19.9 ± 1.2 min. For the same compound, the TAC peak value (hCB2R(D80N); cerebellum) was 2.7 ± 0.0 SUV, the “reduction of the AUC20–60min by displacement” value (hCB2R(D80N); compared to the cerebellum) was 76% and the “reduction of the AUC20–60min by displacement” value (hCB2R(D80N); compared to the contralateral region) was 73%. For the same compound, the AUC (hCB2R(D80N); contralateral region) was 42.6 ± 6.8 SUV × min, the AUMC (hCB2R(D80N); contralateral region) was 854 ± 165 SUV × min^2 and the MRT (hCB2R(D80N); contralateral region) was 20.0 ± 1.1 min. For the same compound, the TAC peak value (hCB2R(D80N); contralateral region) was 2.2 ± 0.4 SUV, the “change of AUC40–60min by displacement versus vehicle” value (hCB2R(D80N); hCB2R D80N-to-cerebellum) was −76.3% and the “AUC40–60min (CI95%)” value (hCB2R(D80N); hCB2R D80N-to-cerebellum, displacement by GW405833 5 mg/kg i.v. 20 min after tracer, n = 2) was 51 (42 to 60) SUVr × min. The “AUC0–20min (CI95%)” value (hCB2R(D80N); hCB2R D80N-to-cerebellum, displacement group (GW405833 5 mg/kg i.v. 20 min after tracer), n = 2) was 49 (40 to 59) SUVr × min, the “AUC0–20min (CI95%)” value (hCB2R(D80N); [4]) was 44 (39 to 48) SUVr × min and the “AUC40–60min (CI95%)” value (hCB2R(D80N); [4]) was 215 (190 to 241) SUVr × min. For the same compound, the “change of AUC40–60min by displacement versus vehicle” value (hCB2R(D80N); hCB2R D80N-to-contralateral) was −73.4%, the “AUC40–60min (CI95%)” value (hCB2R(D80N); hCB2R D80N-to-contralateral, displacement by GW405833 5 mg/kg i.v. 20 min after tracer, n = 2) was 56 (50 to 62) SUVr × min and the “AUC0–20min (CI95%)” value (hCB2R(D80N); hCB2R D80N-to-contralateral, displacement group (GW405833 5 mg/kg i.v. 20 min after tracer), n = 2) was 48 (41 to 54) SUVr × min. For the same compound, the “AUC0–20min (CI95%)” value (hCB2R(D80N); [5]) was 40 (37 to 42) SUVr × min, the “AUC40–60min (CI95%)” value (hCB2R(D80N); [5]) was 210 (190 to 231) SUVr × min and the AUC (hCB2R(D80N); hCB2R(D80N) right striatum) was 155 ± 28 SUV × min. For the same compound, the AUMC (hCB2R(D80N); hCB2R(D80N) right striatum) was 4349 ± 701 SUV × min^2, the MRT (hCB2R(D80N); hCB2R(D80N) right striatum) was 28.0 ± 0.4 min and the TAC peak value (hCB2R(D80N); hCB2R(D80N) right striatum) was 3.3 ± 0.6 SUV. The “uptake in the brain region with CB2R overexpression compared to [11C]NE40” value (hCB2R(D80N); [6]) was “about two-fold”, the “uptake in the brain region with CB2R overexpression compared to [18F]MA3” value (hCB2R(D80N); [6]) was “about five-fold” and the Kd (hCB2R) was 2.9 nM.
